Experimental data published in patent publication US20240122180A1, “FUNGICIDAL HALOMETHYL KETONES AND HYDRATES AND THEIR MIXTURES” (FMC Corporation, priority 2020, published 2024).
Marks after values point to notes of the source that are not given here.

How the values were obtained:
Format in all cases: in vivo
Conditions in all cases: 100 = 100% disease control
[1] = system: Phakopsora pachyrhizi (the causal agent of Asian soybean rust); assay: Test A: preventive spray on soybean seedlings, visual disease rating (100 = 100% control; * 50 ppm, ** 10 ppm, *** 250 ppm)
Method in brief: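 Preventive test: one day after spraying compound (acetone/water suspension, 250 ppm PEG400), seedlings received rust spore inoculum, 24 h in saturated air then 8 days in growth chamber, both at 22 °C. Disease control scored visually, 100 = complete, 0 = none, relative to untreated controls.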

[2] = system: Uncinula necator (the causal agent of grape powdery mildew); assay: Test C: preventive spray on grape seedlings, disease rating (100 = 100% control; * 50 ppm, ** 10 ppm, *** 250 ppm)
From the text: (§1) General protocol for preparing test suspensions for Tests A-E: the test compounds were first dissolved in acetone in an amount equal to 3% of the final volume and then suspended at the desired concentration (in ppm) in acetone and purified water (50/50 mix by volume) containing 250 ppm of the surfactant […] (polyhydric alcohol esters). The resulting test suspensions were then used in Tests A-E.
The test solution was sprayed to the point of run-off on grape seedlings. The following day the seedlings were inoculated with a spore suspension of Uncinula necator (the causal agent of grape powdery mildew) and incubated in a growth chamber at 20° C. for 12 days, after which time disease ratings were made.
(§2) Results for Tests A-E are given in Table A. In the Table, a rating of 100 indicates 100% disease control and a rating of 0 indicates no disease control (relative to the controls). An asterisk “*” or a double asterisk “**” or a triple asterisk “***” next to the rating value indicates a 50 ppm, 10 ppm and 250 ppm test suspension was used, respectively. A dash (-) indicates the compound was not tested.

[3] = system: Blumeria graminis f. sp. tritici (the causal agent of wheat powdery mildew); assay: Test E: preventive spray on wheat seedlings, visual disease rating (100 = 100% control; * 50 ppm, ** 10 ppm, *** 250 ppm)
From the text: as §1
The test suspension was sprayed to the point of run-off on wheat seedlings. The following day the seedlings were inoculated with a spore dust of Blumeria graminis f. sp. tritici, (also known as Erysiphe graminis f. sp. tritici, the causal agent of wheat powdery mildew) and incubated in a growth chamber at 20° C. for 8 days, after which time visual disease ratings were made.
as §2

[4] = system: Zymoseptoria tritici (the causal agent of wheat leaf blotch); assay: Test D: preventive spray on wheat seedlings, disease rating (100 = 100% control; * 50 ppm, ** 10 ppm, *** 250 ppm)
From the text: as §1
The test solution was sprayed to the point of run-off on wheat seedlings. The following day the seedlings were inoculated with a spore suspension of Zymoseptoria tritici (the causal agent of wheat leaf blotch) and incubated in a saturated atmosphere at 24° C. for 48 h, and then moved to a growth chamber at 20° C. for 17 days, after which time disease ratings were made.
as §2

[5] = system: Puccinia recondita f. sp. tritici (the causal agent of wheat leaf rust); assay: Test B: preventive spray on wheat seedlings, disease rating (100 = 100% control; * 50 ppm, ** 10 ppm, *** 250 ppm)
Method in brief: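 Preventive test: Puccinia recondita f. sp. tritici spores were inoculated one day after run-off spraying of wheat seedlings with test suspension (acetone/water 50/50, 250 ppm PEG400). After 24 h in saturated air and 6 days in a growth chamber, both at 20° C, control was scored 0–100 versus untreated plants.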

[6] = 50 ppm test suspension, 0 = no control
[7] = 250 ppm test suspension, 0 = no control
[8] = 10 ppm test suspension, soybean seedlings
[9] = 250 ppm test suspension, grape seedlings
[10] = 250 ppm test suspension, wheat seedlings
[11] = 10 ppm test suspension, wheat seedlings
[12] = 250 ppm test suspension, soybean seedlings
[13] = 50 ppm test suspension, soybean seedlings
[14] = 50 ppm test suspension, grape seedlings
[15] = 50 ppm test suspension, wheat seedlings

Row | SMILES | Test A disease control rating [1, 8] [%] | Test C disease control rating [2, 9] | Test E disease control rating [3, 10] | Test D disease control rating [4, 10] | Test B disease control rating [5, 11] [%] | also measured
1 | CCOC(=O)c1cnn(Cc2ccc(OCC(O)(O)C(F)(F)F)cc2F)c1 [Compound 376] | – | – | – | – | – | Test A disease control rating [1, 6]: 100%; Test C disease control rating [2, 6]: 36%; Test E disease control rating [3, 7]: 99*** %; Test D disease control rating [4, 7]: 98*** %; Test B disease control rating [5, 6]: 92%
2 | CCOC(=O)c1cnn(Cc2c(F)c(F)c(OCC(O)(O)C(F)(F)F)c(F)c2F)c1 [Compound 465] | – | – | – | – | – | Test A disease control rating [1, 6]: 100%; Test C disease control rating [2, 7]: 73*** %; Test E disease control rating [3, 7]: 91*** %; Test D disease control rating [4, 7]: 59*** %; Test B disease control rating [5, 6]: 100%
3 | C#CCOC(=O)c1cnn(Cc2ccc(OCC(O)(O)C(F)(F)F)cc2)c1 [compound 44] | 97 | 16*** % | 91*** % | 98*** % | 85 | –
4 | CCOC(=O)c1cnn(Cc2ccc(C(O)CC(O)(O)C(F)(F)F)cc2)c1 (stereo not drawn) [compound 51] | 0 | 81*** % | 0*** % | 3*** % | 0 | –
5 | CCOC(=O)c1cnn(Cc2ccc(O/C=C(\OC(C)C)C(F)(F)F)cc2)c1 [compound 57] | – | 64*** % | 95*** % | 28% | – | Test A disease control rating [1, 12]: 100%; Test B disease control rating [5, 10]: 0%
6 | O=C(NCC(F)(F)F)c1csc(Cc2ccc(OCC3(C(F)(F)F)OCCO3)cc2)n1 [compound 70] | – | 86% | 83% | 91% | – | Test A disease control rating [1, 12]: 100%; Test B disease control rating [5, 10]: 100%
7 | CC(=O)c1ccc(OCC(O)(O)C(F)(F)F)cc1 [compound 80] | – | – | 99*** % | 96*** % | – | Test A disease control rating [1, 13]: 99%; Test C disease control rating [2, 14]: 0%; Test B disease control rating [5, 15]: 100%
8 | N#Cc1ccc(OCC2(C(F)(F)F)OCCO2)cc1 [compound 98] | – | 31% | 0% | 77% | – | Test A disease control rating [1, 12]: 100%; Test B disease control rating [5, 10]: 100%
9 | CCOC(=O)c1cnn(Cc2ccc(SCC3(C(F)(F)F)OCCO3)cc2)c1 [compound 115] | – | 58% | 56% | 19% | – | Test A disease control rating [1, 12]: 0%; Test B disease control rating [5, 10]: 0%
10 | CCO/C(=C\Oc1ccc(Cn2cc(C(=O)NC(C)C)cn2)cc1)C(F)(F)F [compound 118] | – | 77*** % | 76*** % | 13*** % | – | Test A disease control rating [1, 13]: 100%; Test B disease control rating [5, 15]: 0%
11 | CCOC(=O)c1cnnn1Cc1ccc(O/C=C(\OCC)C(F)(F)F)cc1 [compound 120] | – | – | – | – | – | Test A disease control rating [1, 13]: 100%; Test C disease control rating [2, 14]: 23%; Test E disease control rating [3, 15]: 98%; Test D disease control rating [4, 15]: 17%; Test B disease control rating [5, 15]: 0%
12 | CCO/C(=C\Oc1ccc(Cn2cc(C(=O)OC)cn2)cc1)C(F)(F)F [compound 138] | 100 | – | 99*** % | 31*** % | 0 | Test C disease control rating [2, 14]: 100* %
13 | N#Cc1ccc(OCC(O)(O)C(F)(F)F)cc1 [compound 142] | 92 | 19*** % | 99*** % | 100*** % | 100 | –
14 | CCO/C(=C\Oc1ccc(Cn2cc(Br)cn2)cc1)C(F)(F)F [compound 183] | 0 | 70*** % | 0*** % | 66*** % | 0 | –
15 | C#CCOC(=O)c1cnn(Cc2ccc(O/C=C(\OCC)C(F)(F)F)cc2)c1 [compound 185] | 100 | – | 95*** % | 0*** % | 0 | Test C disease control rating [2, 14]: 100* %
16 | N#Cc1cnn(Cc2ccc(OCC(O)(O)C(F)(F)F)cc2)c1 [compound 206] | – | 34*** % | 93*** % | 93*** % | – | Test A disease control rating [1, 13]: 100%; Test B disease control rating [5, 15]: 98%
17 | CCO/C(=C\Oc1ccc(Cn2cc(C(=O)OCC(C)=O)cn2)cc1)C(F)(F)F [compound 216] | 100 | 20*** % | 87*** % | 37*** % | 0 | –
18 | CCCOC(=O)c1cnn(Cc2ccc(O/C=C(\OCC)C(F)(F)F)cc2)c1 [compound 217] | 100 | 75*** % | 96*** % | 23*** % | 0 | –
19 | CCO/C(=C\Oc1ccc(Cn2cc(C(=O)OCC(C)C)cn2)cc1)C(F)(F)F [compound 219] | 100 | 92*** % | 83*** % | 0*** % | 0 | –
20 | CCO/C(=C\Oc1ccc(Cn2cc(C(=O)OCC3CC3)cn2)cc1)C(F)(F)F [compound 220] | 100 | 85*** % | 92*** % | 28*** % | 0 | –
21 | CCO/C(=C\Oc1ccc(Cn2cc(C(=O)OCCOC)cn2)cc1)C(F)(F)F [compound 222] | 100 | 38*** % | 90*** % | 17*** % | 0 | –
22 | C=C(C)COC(=O)c1cnn(Cc2ccc(O/C=C(\OCC)C(F)(F)F)cc2)c1 [compound 242] | 100 | 87*** % | 69*** % | 27*** % | 0 | –
23 | CC#CCOC(=O)c1cnn(Cc2ccc(O/C=C(\OCC)C(F)(F)F)cc2)c1 [compound 243] | 100 | 29*** % | 56*** % | 0*** % | 0 | –
24 | CCO/C(=C\Oc1ccc(Cn2cc(C(=O)OCCC#N)cn2)cc1)C(F)(F)F [compound 245] | 100 | 24*** % | 76*** % | 18*** % | 0 | –
25 | CCOC(=O)c1cnn(Cc2ccc(OCC3(C(F)(F)F)OCCO3)s2)c1 [compound 273] | – | – | – | – | – | pest or weed control at 250 ppm ([2]; Erysiphe necator, 250 ppm test suspension, 0 = no control): 49%; pest or weed control at 250 ppm ([3]; Blumeria graminis, 250 ppm test suspension, 0 = no control): 65%; pest or weed control at 250 ppm ([4]; Zymoseptoria tritici, 250 ppm test suspension, 0 = no control): 20%; pest or weed control at 50 ppm ([5]; Puccinia recondita, 50 ppm test suspension, 0 = no control): 0%
26 | CCO/C(=C\Oc1cccc(Cn2cc(C(=O)NCc3ncccn3)cn2)c1)C(F)(F)F [compound 402] | – | – | – | – | – | Test A disease control rating [1, 6]: 97%; Test C disease control rating [2, 7]: 48*** %; Test E disease control rating [3, 7]: 0*** %; Test D disease control rating [4, 7]: 5*** %
27 | CCO/C(=C\Oc1cccc(Cn2cc(C(=O)NC)cn2)c1)C(F)(F)F [compound 403] | – | – | – | – | – | Test A disease control rating [1, 6]: 54%; Test C disease control rating [2, 7]: 74*** %; Test E disease control rating [3, 7]: 0*** %; Test D disease control rating [4, 7]: 17*** %
